Test results as given in PubChem BioAssay AID179 (DTP/NCI, 2004).
pEC50, pIC50: −log10 of the molar value. Active and inactive are the calls of the source.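 Rule for the calls: active = compounds giving half or more protection of infected cells from virus-caused growth loss, again on retest; inactive = the rest.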 Where a SMILES comes first, the peptide text is derived from it. The star is where a group is joined. Boc = CC(C)(C)OC(=O)*

System: CEM cells HIV-1 protection, formazan growth assay
Test: NCI AIDS Antiviral Assay
Conditions: for pIC50: measured here: growth of uninfected CEM cells
How it was run: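 Soluble formazan readout of cell growth; CEM cells ± HIV-1; 5 drug concs. ≥50% protection → retest; ≥50% again = moderately active; reproducible 100% = confirmed active.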

Row | SMILES | pEC50 | pIC50 | outcome
1 | CC(C)N(C(C)C)P(=O)(OP(=O)(c1ccc([N+](=O)[O-])cc1)N(C(C)C)C(C)C)c1ccc([N+](=O)[O-])cc1 (stereo not drawn) | < 3.70 | 3.82 | 
2 | NNC(=O)C(=O)N/N=C(/CCC(=O)NCCc1ccccc1)CC(=O)c1ccccc1 |  |  | inactive
3 | COc1cc2oc3cc(OC)c(OC)c(CC=C(C)C)c3c(=O)c2c(O)c1CC=C(C)C | < 4.51 | < 4.51 | 
4 | Oc1cccc(C2SCc3nc4ccccc4n32)c1 (stereo not drawn) | < 3.90 | 4.33 | 
5 | COc1ccc(/C=N/n2cnc3c(c2=O)SC(=C(C#N)C#N)N3c2ccccc2)cc1 | < 5.21 | < 5.21 | 
6 | COc1ccc(OC)c(CCc2cc(OC)ccc2OC)c1 | < 3.70 | 5.90 | 
7 | Nc1nc2c(ncn2C2OC(CO)(C(F)(F)F)C(O)C2O)c(=O)[nH]1 (stereo not drawn) | < 3.70 | < 3.70 | 
8 | COc1ccc(/C=C(\C2=NC(=O)CS2)c2nc3ccccc3[nH]2)cc1 | < 4.68 | < 4.68 | 
9 | Cc1ccc(S(=O)(=O)OCCOCCOCCOCCOCCOS(=O)(=O)c2ccc(C)cc2)cc1 |  |  | inactive
10 | COP(=O)(OC)/C(=C/c1cnc[nH]1)NC=O | < 3.70 | < 3.70 | 
11 | Cc1ccc(C(N)=O)cc1N=NN(C)C | < 3.34 | 3.57 | 
12 | N#CC(C#N)=c1[nH]c2cccc3c2-c2c(cccc2c3=C(C#N)C#N)[nH]1 |  |  | inactive
13 | COc1ccc(CCn2ccc(C)n2)c(OC)c1 | < 3.70 | < 3.70 | 
14 | Cc1cc(C)c2c(c1)CC1(Cc3c(ccc(C)c3C)C1=O)C2=O (stereo not drawn) | < 4.00 | < 4.00 | 
15 | COC(=O)CC(C)(NS(=O)c1ccc(C)cc1)c1ccccc1 (stereo not drawn) | < 3.70 | 3.92 | 
16 | CCOC(=O)c1c(CN2CCNCC2)nc2ccc(Cl)cc2c1-c1ccccc1 | < 4.20 | 4.47 | 
17 | O=C1C2CCCC3CCCC(C(=O)N1NC1CCCCC1)C32 (stereo not drawn) | < 3.70 | 3.97 | 
18 | Cc1ccc(/C(=C\C(=O)C(=O)NC23CC4CC(CC(C4)C2)C3)Sc2ccccc2)cc1 | < 3.70 | 3.93 | 
19 | O=C1C=CC(=C(c2ccc(O)cc2)c2c(Br)c(Br)c(Br)c(Br)c2S(=O)(=O)O)C=C1 |  |  | inactive
20 | CC(NC(=O)C1CCCN1C(=O)CNC(=O)OC(C)(C)C)C(=O)O (stereo not drawn) (Boc-Gly-Pro-Ala-OH; configuration not given here) | < 3.70 | < 3.70 | 
21 | O=C(C=Nc1ccccc1S)c1cccs1 | < 5.23 | < 5.23 | 

Row | SMILES | pEC50 | pIC50 | outcome
22 | COc1ccc(NC(=O)CC2SC(=Nc3ccc(Cl)cc3C)NC2=O)c([N+](=O)[O-])c1 (stereo not drawn) | < 3.40 | < 3.40 | 
23 | O=C(O)c1ccc(CSc2ccc([N+](=O)[O-])cc2)c([N+](=O)[O-])c1 | < 3.69 | < 4.00 | 
24 | COC(=O)/C=C/C1C2C3(CCC(C)C12C)OCCS3 (stereo not drawn) | < 3.90 | < 3.90 | 
25 | COc1ccc(NC(=O)C(=O)C(CC2C(=O)NC(=S)NC2=O)C(=O)c2ccc3ccccc3c2)c([N+](=O)[O-])c1 (stereo not drawn) | < 3.91 | < 3.91 | 
26 | COc1cccc(NC(=O)CC(=O)N2N=C(C)C(N=Nc3ccc(S(=O)(=O)CCOS(=O)(=O)O)cc3)C2=O)c1 (stereo not drawn) | < 3.70 | 5.52 | 
27 | COc1ccc(S(=O)(=O)NCCSSCCNS(=O)(=O)c2ccc(OC)cc2)cc1 | < 3.70 | 4.57 | 
28 | CCc1ccc(/C(C#N)=C/c2ccc(OC)cc2)cc1 | < 3.70 | 5.40 | 
29 | Cn1c(=O)c2c(nc3n2CC(=O)N3CCCCl)n(C)c1=O | 4.07 | < 3.70 | 
30 | NCc1ccc(O)c(O)c1O | < 3.70 | 5.03 | 
31 | COc1cc(CCNC(C)=O)cc(OC)c1OC | < 3.70 | < 3.70 | 
32 | O=[N+]([O-])c1ccc(C=Cc2ccccc2)cc1.[C-]#[O+].[C-]#[O+].[C-]#[O+].[Cr] |  |  | inactive
33 | O=C(/C=C/c1ccccc1)CCN1CCCCC1 | < 3.70 | 4.99 | 
34 | Cc1ccc(Nc2cc(=O)[nH]c(=O)[nH]2)cc1CS | < 3.70 | 4.03 | 
35 | Cc1ccnc2sc3ccccc3c(=O)c12 | < 3.70 | 4.43 | 
36 | Cn1c2ccccc2c(=S)c2c(O)cc3c(c21)C=CC(C)(C)O3 | < 3.70 | < 3.70 | 
37 | O=c1[nH]nc(Cc2ccccc2)n1/N=C\CC/C=N\n1c(Cc2ccccc2)n[nH]c1=O | < 3.70 | 4.43 | 
38 | O/N=C1\CN2CCC1CC2 |  |  | inactive
39 | CC1=NN(c2ccccc2)C(=O)C1=C1SCCS1 | < 3.74 | < 3.74 | 
40 | C=C1CN(S(=O)(=O)c2ccc(C)cc2)CCCN(CC2CC2)CCCN(S(=O)(=O)c2ccc(C)cc2)C1 | < 3.70 | 5.37 | 
41 | C=CCC1[C@@H](C(C)(C)C(C(C)=O)C(=O)C(=O)OC)OC(C(C)(C)C)N1C(=O)OC (stereo partly drawn) | < 4.20 | < 4.20 | 
42 | CC(=O)N1C(OCc2ccccc2)CCN1c1ccccc1 (stereo not drawn) | < 3.70 | < 3.70 | 
